Measurements: ChEMBL document CHEMBL1158943, “Chemistry of Sponges, XI. 22-Deoxyvariabilin, a New Sesterterpene from the Sponge Thorecta sp” (J Nat Prod, 1991)
The source made the active and inactive calls.

Key:
Type in all cases: functional, organism-based
[1] = test system: Candida albicans; assay: Antimicrobial activity against Candida albicans at 100 ug/disk by standard disk method
[2] = test system: Staphylococcus aureus; assay: Antimicrobial activity against Staphylococcus aureus at 100 ug/disk by standard disk method
[3] = test system: Bacillus subtilis; assay: Antimicrobial activity against Bacillus subtilis at 50 ug/disk by standard disk method

Measured: Activity

CC1=C/C(=C/[C@@H](C)CCC/C(C)=C/CC/C(C)=C/CCc2ccoc2)OC1=O
active: all assays above
